In PubChem BioAssay (NCI):
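Exposure lasted 48 hours, with cells grown in 96-well plates and compounds tested at five concentrations. The concentration for full growth arrest is given as TGI.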

How the values were obtained:
Test in all cases: NCI tumour cell line growth inhibition, 48 h
[1] = system: HL-60(TB) leukemia
[2] = system: OVCAR-5 ovarian
[3] = system: KM12 colon
[4] = system: SK-MEL-28 melanoma
[5] = system: EKVX NSCLC
[6] = system: HCT-116 colon
[7] = system: MALME-3M melanoma
[8] = system: UO-31 renal
[9] = system: HCC-2998 colon
[10] = system: HCT-15 colon

Compound	TGI [1] [µM]	TGI [2] [µM]	TGI [3] [µM]	TGI [4] [µM]	TGI [5] [µM]	TGI [6] [µM]	TGI [7] [µM]	TGI [8] [µM]	TGI [9] [µM]	TGI [10] [µM]
O=C(Nc1ccc2cc3ccccc3cc2c1)c1cc2c(cc1Cl)Sc1nccn1S2(=O)=O	46.9	93.5	> 100	> 100	> 100	> 100	> 100	> 100	95.8	> 100
O=C(O)c1ccc(Nc2nc3nn(Cc4ccccc4)cc3c(=O)s2)cc1	> 100	> 100	> 100	> 100	> 100	> 100	> 100	> 100	> 100	> 100
N#Cc1c(-c2ccccc2)cc(Nc2ccc(Cl)cc2)n2c1nc1ccccc12		> 50.9	> 65.5	> 100	> 46.7	> 31.7	> 100	> 100	> 100	> 88
COc1ccc2c(c1OC)C(=O)O[C@@H]2[C@H]1c2c(cc3c(c2OC)OCO3)CCN1C		> 100	> 100	> 100		> 100	79.3	> 100	> 100	> 100
COCOc1cc(OC)ccc1C/C(=N/O)C(=O)OC	> 100	> 100	> 100	> 100	> 100	> 100	> 100	> 100	> 100	> 100
CC(=O)NC1(C)C(C)C2CC1C(C)C2(C)C (stereo not given)	> 100	> 100	> 100	> 100	> 100	> 100	> 100	> 100	> 100	
O=[N+]([O-])C(C(Cl)=C(Cl)Cl)=C(n1cncn1)n1cncn1		22.9	> 100	> 95.9	59.9	31.9	31.2	34.9	98.1	36.7
CCCCCCCCCC(=O)NC(Cc1ccc(O)cc1)C(=O)NCCCNCCCCNCCCNC(=O)[C@@H](N)CCCN=C(N)N (stereo not given in full)	48.1		61.5	43.8	> 100	> 100	39.7	> 100	> 100	> 100
O=C1C(Cl)=C(NCCF)C(=O)c2ncccc21	> 10	3.29	3.38	3.41	3.08	3.51	2.98	2.6	2.71	4.87
Cc1cn(C2OC(CO)C(O)C2F)c(=O)[nH]c1=O (stereo not given)	> 100	> 100	> 100	> 100	> 100	> 100	> 100	> 100	> 100	> 100
COc1ccc(CCN2C(=O)CC34C=CC(CC3C2=O)O4)cc1OC (stereo not given)	> 100	> 100	> 100	> 100	> 100	> 100		> 100	> 100	> 100
Cc1nc(Nc2ccc(Cl)c(Cl)c2)sc1C(=O)/C=C/c1ccc2c(c1)OCO2	43.4	> 100	50	86.9	87.2	49.4	> 100	33.7	88.1	
C[n+]1ccccc1/C1=c2\cc/c([nH]2)=C(\c2cccc[n+]2C)C2=N/C(=C(/c3cccc[n+]3C)C3C=CC(N3)/C(c3cccc[n+]3C)=C3/C=CC1=N3)C=C2	> 100	> 100	> 100	> 100	> 100	> 100	> 100	> 100	> 100	> 100
O=C(C1OC1c1cccc([N+](=O)[O-])c1)C12CC3CC(CC(C3)C1)C2 (stereo not given)	15.8	18.9	13.9	25.6	27	4.69	27.9	21	14.5	14.7
O=c1[nH]c(=O)n([C@@H]2O[C@H](CO)[C@@H](O)[C@@H]2F)cc1I	> 100	> 100	> 100	> 100	> 100	> 100	> 100	> 100	> 100	> 100
Cc1ccc(C2C(Cl)C(=O)N2NC(=O)c2ccc(N)cc2)cc1 (stereo not given)	31.2	47.9	> 100	26	49.7	28.3	32.1	86.5	> 100	29.9
O=C1/C(=C/c2ccccc2)CCCc2ccccc21	35.5	42.2	35.2	32.6	37.3	30.7	42	31.9		32.3
CC(=O)NC1=C(N)C(=O)c2ccccc2C1=O	> 100	> 100	> 100		> 100	35	50.4	> 100	> 100	> 100
COc1cc(OC)c(C2(c3c(OC(C)C)c(=O)c3=O)SCCCS2)cc1OC	> 100	> 100	> 100	> 100	> 100	> 100	> 100	> 100	> 100	> 100
COC(=O)[C@H](Cc1c[nH]c2ccccc12)NC(=O)c1ccccc1I	54	> 100	> 100	> 100	> 100	> 100	35.8	33.4	82.6	> 100
CC(=O)n1nc(-c2ccc3ccccc3c2)nc1C	> 100	> 100	> 100		> 100	> 100	> 100	> 100	> 100	> 100
Cc1ccc(S(=O)(=O)NC(=O)NC(CCC(N)=O)C(=O)O)cc1 (stereo not given)	> 100	> 100	> 100	> 100		> 100	> 100	> 100		> 100
COC(=O)C1(O)C(c2ccccc2)NC2(C)CCCC21 (stereo not given)	> 100		> 100	> 100		> 100	> 100	> 100		> 100

Compound	TGI [1] [µM]	TGI [2] [µM]	TGI [3] [µM]	TGI [4] [µM]	TGI [5] [µM]	TGI [6] [µM]	TGI [7] [µM]	TGI [8] [µM]	TGI [9] [µM]	TGI [10] [µM]
OC12CCC3(O)c4ccccc4C3C1c1ccccc12 (stereo not given)	> 100		> 100	> 100	> 100	> 100	> 100	> 100		> 100
O=c1c2c3c(sc2nc2n1N=CN(c1ccc(F)cc1)C2)CCCC3		> 100	> 100	> 100	> 100	> 100	> 100	> 100	> 100	> 100
C1=NCCOCCN=Cc2ccc(cc2)OCc2cccc(n2)COc2ccc1cc2	> 100	> 100	> 100	> 100	> 100	> 100	> 100	> 100		> 100
Cc1cc(NS(=O)(=O)c2ccc(Nc3c4ccccc4nc4c(C(=O)NCCO)cccc34)cc2)no1	> 100	> 100	62.7	> 100	> 100		70.4	99.7	> 100	> 100
O=C(NC1(C(=O)O)CCCC1)c1ccccc1	> 100	> 100	> 100	> 100	> 100	> 100		> 100	> 100	> 100
CC(=O)O[C@H]1C(=O)[C@@]2(C)[C@H]([C@H](OC(=O)c3ccccc3)[C@]3(O)C[C@H](OC(=O)[C@H](O)[C@@H](NC(=O)c4ccc(N(C)C)cc4)c4ccccc4)C(C)=C1C3(C)C)[C@]1(OC(C)=O)CO[C@@H]1C[C@@H]2O	0.00566	> 50	> 50	> 50	> 50	> 50		> 50		> 50
OC12c3ccccc3C1CCCCCC21OCCCO1 (stereo not given)	> 100	> 100	> 100	> 100		> 100	> 100	> 100		> 100
O=C(c1ccco1)N(C(=S)N1CCN(c2ccccn2)CC1)c1ccccc1	> 100	> 100	> 100	> 100		> 100	> 100	> 100		> 100
CCOC1CCN(C(=O)c2ccccc2)O1 (stereo not given)	> 10	> 10		> 10	> 10	> 10	> 10	> 10	> 10	> 10
C=CCn1c(-c2ccc(Cl)cc2)csc1=Nc1ccccc1OC	86.3	> 100	> 100	> 100		> 100	> 100	> 100	> 100	> 100
O=P1(Cc2ccccc2)c2ccccc2-c2ccccc21		54.7	10.3	24.6	> 73.1	50.9	12.7	69.2	16.7	> 100
Cc1ccc(SCC(OCn2cnc3c(Cl)nc(N)nc32)[C@H](C)F)cc1 (stereo not given in full)	96.8	> 100	> 100	> 100		> 100	> 100	> 100	> 100	> 100
C=CCn1c(=N)/c(=C(\N)O)s/c1=C1/SC(=S)N(c2ccc(C)cc2)C1=O	> 100	> 100	> 100	> 100		> 100	> 100	> 100		
CC[n+]1c(/C=C/c2ccc(N(CCCl)CCCl)cc2)ccc2cc(I)ccc21	0.675	7.77			12		2.93	14.2	2.58	28.1
C/C(O[Si](C(C)C)(C(C)C)C(C)C)=C(\C)C(=O)N(C)c1ccccc1Cl		> 100	> 100	> 100	> 100	> 100	> 100	> 100		> 100
Cc1cc(N(CCC#N)CCC#N)ccc1/C(N=Nc1ccc([N+](=O)[O-])cc1)=N\NC(=O)c1ccccc1	> 100	> 100	> 100		> 100	> 100	> 100	> 100	> 100	> 100
C[C@H]1O[C@@H](C(C)(C)C)OC(=O)[C@@H]1C(OC(=O)c1ccccc1)c1cccc2ccccc12 (stereo not given in full)		> 100	> 100	> 100	> 100	> 100	> 100	> 100	> 100	> 100
C=CCN(CCN(CC=C)S(=O)(=O)c1ccc(C)cc1)S(=O)(=O)c1ccc(C)cc1			> 100	> 100		> 100		> 100	> 100	> 100
COc1ccc2oc(C(=O)N3CC(CCl)c4ccc(N)cc43)cc2c1 (stereo not given)	15.6	> 41	1.45	2.55	4	0.576		0.617	1.19	3.18
Nc1c2cc3ccc2nc2ccc(cc12)OCCOCCOCCOCCOCCOCCO3	> 10	> 10	> 10	> 10	> 10	> 10	> 10		> 10	> 10
Cc1ccc(/S(Cc2ccccc2)=N\S(=O)(=O)c2ccc(C)cc2)cc1 (stereo not given)	> 100	> 100	> 100	> 100	> 100	> 100	> 100	> 100		> 100
COc1ccc(/C(Cl)=C(\C=O)c2ccc(Cl)cc2)cc1OC	7.74	> 100			> 100	33.3	> 100	28	76.2	> 100
C=CCCC(=O)C(=[N+]=[N-])C(=O)CCC(=O)c1ccccc1		> 10		> 10	> 10		> 10	> 10		> 10
